Assay results as given in patent US8167866B2, “Drug delivery system for accelerated subcutaneous absorption” (priority 2004, dated 2012).

Tests used:
[1] = typical duration; routine lidocaine versus tumescent infiltration; cited from earlier work
[2] = system: cutaneous blood vessels; assay: topical application of aqueous solution, erythema of the affected area; format: in vivo, human; conditions: patient, within minutes
Text: The fluid or the solution of pharmacologic drug may include a crystalloid solution or a dilute solution of pharmacologic drug such as an antibiotic. The drug used to accelerate the absorption rate of the fluid or the pharmacologic drug is operative to cause capillary vasodilatation, that is, vasodilatation of cutaneous blood vessels. The dilation of capillaries increases the rate of blood flowing through the affected subcutaneous tissue; and consequently, increases the rate of absorption into the systemic circulation of the fluid or pharmacologic drug. As the rate of absorption and circulation of the fluid or pharmacologic drug increases, a clinically significant degree of systemic absorption of the fluid or pharmacologic drug can be achieved without the application of IV access. Currently, many drugs are available to provide the vasodilatation of cutaneous blood vessels of a human body. However, it is appreciated that those drugs which are pharmacologic and potentially toxic to the human bodies are not the appropriate candidates for such drug. For example, although lidocaine is effective to cause dilation of capillaries and increase the rate of blood flowing through affected subcutaneous tissue, which in turn accelerates the absorption rate of drug, it might not be an appropriate candidate for such a drug due to its potentially toxic effect if its concentration is too high. […]

In the case of `CCN(CC)CC(=O)Nc1c(C)cccc1C` [lidocaine], the “duration of local anesthesia” value [1] is listed as roughly 2 h.
For `CNC(=O)c1cccnc1` [methyl-nicotinamide], the “erythema of the affected area” value [2] was “very obvious erythema”.
With `COC(=O)c1cccnc1` [methyl-nicotinate] the “erythema of the affected area” value [2] was “very obvious erythema”.
